Experimental data as given in ChEMBL document CHEMBL1128462, “In vivo and in vitro studies on the neurotoxic potential of 6-hydroxydopamine analogs” (J Med Chem, 1995).

Tests used:
[1] = molecular target: T1, Norepinephrine transporter (Rattus norvegicus, UniProt Q9WTR4); assay: Evaluated for the Non competitive inhibition of uptake of norepinephrine
[2] = organism: Mus musculus; assay: Long term depletion of Norepinephrine (NE) in Whole mouse Brain at a low dose (60 nmol); assay type: functional
[3] = organism: Mus musculus; assay: Long term depletion of Dopamine(DA) in Whole mouse Brain at a low dose (60 nmol); assay type: functional
[4] = organism: Mus musculus; assay: Long term depletion of Norepinephrine (NE) in Whole mouse Brain at a high dose (300 nmol); assay type: functional
[5] = molecular target: Sodium-dependent dopamine transporter (Rattus norvegicus, UniProt P23977); assay: Evaluated for the Competitive inhibition of uptake of dopamine transporter
[6] = organism: Rattus norvegicus; assay: Evaluated for the stimulation of synaptosomal release of Dopamine (release constant); assay type: functional
[7] = organism: Mus musculus; assay: Long term depletion of Dopamine(DA) in Whole mouse Brain at a high dose (300 nmol); assay type: functional
[8] = organism: Mus musculus; assay: Long term depletion of Serotonin(5-HT) in Whole mouse Brain at a low dose (60 nmol); assay type: functional
[9] = organism: Mus musculus; assay: Long term depletion of Serotonin(5-HT) in Whole mouse Brain at a high dose (300 nmol); assay type: functional
[10] = organism: Rattus norvegicus; assay: Evaluated for the stimulation of synaptosomal release of norepinephrine (release constant); assay type: functional
[11] = organism: Mus musculus; assay: Long term depletion of Dopamine(DA) in Whole mouse Brain region of hypothalamus at a high dose (300 nmol); assay type: functional
[12] = organism: Mus musculus; assay: Long term depletion of Dopamine(DA) in Whole mouse Brain region of hippocampus at a high dose (300 nmol); assay type: functional
[13] = organism: Mus musculus; assay: Long term depletion of Norepinephrine (NE) in Whole mouse Brain region of hypothalamus at a high dose (300 nmol); assay type: functional
[14] = molecular target: T1, Norepinephrine transporter; assay: Evaluated for the Competitive inhibition of uptake of norepinephrine
[15] = organism: Mus musculus; assay: Long term depletion of Serotonin(5-HT) in Whole mouse Brain region of striatum at a high dose (300 nmol); assay type: functional
[16] = organism: Mus musculus; assay: Noradrenergic effect was determined by depletion effect of Serotonin(5-HT) in mouse brain regions expressed as d50; assay type: functional
[17] = organism: Mus musculus; assay: Long term depletion of Norepinephrine (NE) in Whole mouse Brain region of hippocampus at a high dose (300 nmol); assay type: functional
[18] = organism: Mus musculus; assay: Long term depletion of Dopamine(DA) in Whole mouse Brain region of medulla-pons at a high dose (300 nmol); assay type: functional
[19] = organism: Mus musculus; assay: Noradrenergic effect was determined by depletion effect of Nerepinephrine (NE) in mouse brain regions expressed as log d50; assay type: functional, organism-based
[20] = organism: Mus musculus; assay: Long term depletion of Norepinephrine (NE) in Whole mouse Brain region of thalamus at a high dose (300 nmol); assay type: functional
[21] = organism: Mus musculus; assay: Noradrenergic effect was determined by depletion effect of Serotonin(5-HT) in mouse brain regions expressed as log d50; assay type: functional, organism-based
[22] = organism: Mus musculus; assay: Noradrenergic effect was determined by depletion effect of Nerepinephrine (NE) in mouse brain regions expressed as d50; assay type: functional
[23] = organism: Mus musculus; assay: Long term depletion of Norepinephrine (NE) in Whole mouse Brain region of striatum at a high dose (300 nmol); assay type: functional
[24] = organism: Mus musculus; assay: Long term depletion of Serotonin(5-HT) in Whole mouse Brain region of thalamus at a high dose (300 nmol); assay type: functional
[25] = organism: Mus musculus; assay: Long term depletion of Dopamine(DA) in Whole mouse Brain region of thalamus at a high dose (300 nmol); assay type: functional
[26] = organism: Mus musculus; assay: Long term depletion of Serotonin(5-HT) in Whole mouse Brain region of medulla-pons at a high dose (300 nmol); assay type: functional
[27] = organism: Mus musculus; assay: Long term depletion of Dopamine(DA) in Whole mouse Brain region of cortex at a high dose (300 nmol); assay type: functional
[28] = organism: Mus musculus; assay: Long term depletion of Serotonin(5-HT) in Whole mouse Brain region of hypothalamus at a high dose (300 nmol); assay type: functional
[29] = organism: Mus musculus; assay: Noradrenergic effect was determined by depletion effect of Dopamine(DA) in mouse brain regions expressed as log d50; assay type: functional, organism-based
[30] = organism: Mus musculus; assay: Long term depletion of Serotonin(5-HT) in Whole mouse Brain, region of midbrain at a high dose (300 nmol); assay type: functional
[31] = organism: Mus musculus; assay: Long term depletion of Dopamine(DA) in Whole mouse Brain region of cerebellum at a high dose (300 nmol); assay type: functional
[32] = organism: Mus musculus; assay: Long term depletion of Serotonin(5-HT) in Whole mouse Brain region of cortex at a high dose (300 nmol); assay type: functional
[33] = organism: Mus musculus; assay: Noradrenergic effect was determined by depletion effect of Dopamine(DA) in mouse brain regions expressed as d50; assay type: functional
[34] = organism: Mus musculus; assay: Long term depletion of Serotonin(5-HT) in Whole mouse Brain region of hippocampus at a high dose (300 nmol); assay type: functional
[35] = organism: Mus musculus; assay: Long term depletion of Serotonin(5-HT) in Whole mouse Brain region of cerebellum at a high dose (300 nmol); assay type: functional
[36] = organism: Mus musculus; assay: Long term depletion of Norepinephrine (NE) in Whole mouse Brain region of medulla-pons at a high dose (300 nmol); assay type: functional
[37] = organism: Mus musculus; assay: Long term depletion of Norepinephrine (NE) in Whole mouse Brain region of cerebellum at a high dose (300 nmol); assay type: functional
[38] = organism: Mus musculus; assay: Long term depletion of Dopamine(DA) in Whole mouse Brain region of striatum at a high dose (300 nmol); assay type: functional
[39] = organism: Mus musculus; assay: Long term depletion of Dopamine(DA) in Whole mouse Brain, region of midbrain at a high dose (300 nmol); assay type: functional
[40] = organism: Mus musculus; assay: Long term depletion of Norepinephrine (NE) in Whole mouse Brain, region of midbrain at a high dose (300 nmol); assay type: functional
[41] = organism: Mus musculus; assay: Long term depletion of Norepinephrine (NE) in Whole mouse Brain region of cortex at a high dose (300 nmol); assay type: functional

T1 sequence (Q9WTR4 whole entry): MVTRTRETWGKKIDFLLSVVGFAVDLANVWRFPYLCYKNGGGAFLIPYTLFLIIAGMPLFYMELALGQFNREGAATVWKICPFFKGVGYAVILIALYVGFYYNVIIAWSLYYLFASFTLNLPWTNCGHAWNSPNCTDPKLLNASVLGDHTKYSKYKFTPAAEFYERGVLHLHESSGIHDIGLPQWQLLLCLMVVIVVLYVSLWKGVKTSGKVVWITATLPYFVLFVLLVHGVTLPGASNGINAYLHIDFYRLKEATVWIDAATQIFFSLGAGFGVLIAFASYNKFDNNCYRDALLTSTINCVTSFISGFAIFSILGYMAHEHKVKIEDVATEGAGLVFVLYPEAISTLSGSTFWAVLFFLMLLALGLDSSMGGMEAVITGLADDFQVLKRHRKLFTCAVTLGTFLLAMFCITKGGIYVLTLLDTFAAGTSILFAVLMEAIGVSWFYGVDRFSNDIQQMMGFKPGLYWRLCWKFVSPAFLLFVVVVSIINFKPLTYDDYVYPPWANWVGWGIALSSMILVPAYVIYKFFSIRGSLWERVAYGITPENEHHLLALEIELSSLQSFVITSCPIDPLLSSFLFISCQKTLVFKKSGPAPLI
Sequence of Sodium-dependent dopamine transporter (P23977 whole entry): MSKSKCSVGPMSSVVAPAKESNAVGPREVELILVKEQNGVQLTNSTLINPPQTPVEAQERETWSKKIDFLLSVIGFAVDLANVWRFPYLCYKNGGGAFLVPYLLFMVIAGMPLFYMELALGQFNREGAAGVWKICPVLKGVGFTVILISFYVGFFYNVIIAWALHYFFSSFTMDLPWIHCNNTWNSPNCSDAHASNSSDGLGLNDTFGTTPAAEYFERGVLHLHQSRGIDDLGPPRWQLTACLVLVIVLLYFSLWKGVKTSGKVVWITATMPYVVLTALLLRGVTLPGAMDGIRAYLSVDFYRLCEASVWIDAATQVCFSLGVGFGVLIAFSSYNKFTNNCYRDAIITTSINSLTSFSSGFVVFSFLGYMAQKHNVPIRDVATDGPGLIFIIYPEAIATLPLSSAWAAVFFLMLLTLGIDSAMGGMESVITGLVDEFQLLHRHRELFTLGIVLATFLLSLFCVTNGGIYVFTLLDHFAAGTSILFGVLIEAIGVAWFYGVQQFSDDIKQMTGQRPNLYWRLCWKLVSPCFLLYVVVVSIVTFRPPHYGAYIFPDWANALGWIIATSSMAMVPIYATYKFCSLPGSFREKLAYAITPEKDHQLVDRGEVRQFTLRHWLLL

Work on `CC(N)Cc1cc(O)c(N)cc1O` (stereo not given) yielded a Ki [1] of 1 nM, a Control [2] of 33% and a Control [3] of 100%. The Control [4] was 40%, the Ki [5] was 3 nM and the EC50 [6] was 8000 nM. For the same compound, the percent of control [7] was 88%, the Control [8] was 79% and the Control [9] was 83%. For the same compound, the EC50 [10] was 51000 nM.
`CC(N)Cc1cc(N)c(O)cc1O` (stereo not given) showed a Control [11] of 120%, a Control [12] of 42% and a Control [13] of 1.3%. The Ki [14] was 46 nM, the Control [15] was 104% and the Control [2] was 26%. For the same compound, the d50 [16] was 3220 nmol, the Control [17] was 6.4% and the Control [18] was 110%. For the same compound, the Log d50 [19] was 1.33 nM, the Control [20] was 14% and the Log d50 [21] was 3.51 nM. For the same compound, the d50 [22] was 21.5 nmol, the Control [23] was 7% and the Control [24] was 93%. The Control [3] was 100%, the Control [25] was 154% and the Control [4] was 22%. The Control [26] was 101%, the Control [27] was 57% and the Ki [5] was 112 nM. For the same compound, the EC50 [6] was 380000 nM, the Control [28] was 75% and the percent of control [7] was 74%. The Log d50 [29] was 2.96 nM, the Control [30] was 75% and the Control [8] was 103%. For the same compound, the Control [31] was 63%, the Control [32] was 78% and the Control [9] was 83%. It also gave a d50 [33] of 918 nmol, a Control [34] of 63% and an EC50 [10] of 672000 nM. For the same compound, the Control [35] was 77%, the Control [36] was 59% and the Control [37] was 3.4%. The Control [38] was 71%, the Control [39] was 116% and the Control [40] was 74%. For the same compound, the Control [41] was 8%.
For `NCCc1cc(O)c(O)cc1N`, the Ki [14] was 11 nM, the Control [2] was 40% and the Control [3] was 90%. For the same compound, the Control [4] was 37%, the Ki [5] was 17 nM and the EC50 [6] was 3000 nM. For the same compound, the percent of control [7] was 79%, the Control [8] was 78% and the Control [9] was 74%. It also gave an EC50 [10] of 23000 nM.
Work on `CC(N)Cc1cc(O)c(O)cc1N` (stereo not given) yielded a Ki [14] of 8 nM, a Control [2] of 32% and a Control [3] of 96%. The Control [4] was 26%, the Ki [5] was 9 nM and the EC50 [6] was 7000 nM. For the same compound, the percent of control [7] was 77%, the Control [8] was 72% and the Control [9] was 59%. For the same compound, the EC50 [10] was 21000 nM.
